Experimental data published in paper PMC8110578, “Phenylethynylbenzyl-modified biguanides inhibit pancreatic cancer tumor growth” (Scientific Reports, 2021).
Where two headings read alike, the source gives them in different places.

Experiments:
red blood cells = test: Hemolytic activity of PEB-biguanidium salts; format: cell-based; details: red blood cells 2% v/v in PBS, 1 h at 37 °C
Experimental: The toxicity of PEB-Biguanidiums salts was estimated through their hemolytic activity by incubating red blood cells (RBC) with the compounds for 1 h (See Supplementary Table S13 and Supplementary Fig. S29).
Experimental. Red blood cells in Alsever’s solution were centrifuged for 10 min at 300g, washed 3 times with PBS buffer, and resuspended in PBS at 2% v/v. To each well of a 96-well plate, 195 µL of red blood cell solution and 5 µL of biguanidium salt in DMSO were added, and the plate was incubated with light agitation for 1 h at 37 °C. The plate was then centrifuged for 10 min at 300g, and 50 µL of the supernatant solution of each well was transferred to another plate. Absorbance was measured at λ = 405 nm. Each measurement was performed in triplicate in three different experiments.

[1] = test system: HPNE cells (normal immortalized pancreatic epithelial cells); test: Growth assay (crystal violet), HPNE cells; format: cell-based, human; details: 3 days treatment, crystal violet retention assay
Experimental: . The IC50 of most of the synthetic biguanides in HPNE cells was higher than for cancer cells (Supplementary Table S12).
All chemicals were purchased from Aldrich Chemicals in their highest purity and used without further purification. Deuterated dimethylsulfoxide (DMSO-d^6) and deuterated chloroform (CDCl3) were purchased from CDN Isotopes. NMR spectra were recorded on Bruker advance 400 and 100 spectrometers. Coupling constants are given in hertz (Hz) and chemical shifts are given in parts per million (ppm, δ) measured relative to the residual solvent (the multiplicity of the signals are given as s: singlet, d: doublet, t: triplet, and m: multiplet). High-resolution mass spectra (HRMS) were recorded on a TSQ Quantum Ultra (Thermo Scientific) triple quadrupole with accurate mass option instrument (Université de Montréal Mass Spectrometry Facility). MS experiences were performed using an UltrafleXtreme MALDI TOF/TOF mass spectrometer equipped with a SmartBeam II Nd:Yag/355 nm laser operating at 1 kHz and providing a laser focus down to 20 μm in diameter (Bruker Daltonics, Billerica, MA). The data acquisition for MS was performed in positive ion mode using the linear geometry with flexControl 3.4 (Bruker Daltonics, Billerica, MA). Acceleration voltage was set to + 25 kV and all other instrumental parameters (delayed extraction parameters, source voltages, detector gain, laser energy, etc.) were optimized for maximum S/N for the drug compounds. L-α-Phosphatidylcholine was purchased from Avanti Polar Lipids. Transport and depolarization studies as well as absorbance measurements were performed on a Varian Cary Eclipse fluorescence spectrophotometer. The hemolysis assays were performed on a Fluostar Optima plate reader. Single crystals of C18H18F3N5O3S were obtained from chloroform. A suitable crystal was selected and analysed on a Bruker Venture Metaljet diffractometer. Crystal violet retention assay was used for cell growth assays and IC50 were determined using Prism (GraphPad). NAD/NADH quantitation colorimetric kit (#K337-100) from Biovision was used according to manufacturer’s instructions. ECAR (extracellular acidification rate) and OCR of KP4 cells (oxygen consumption rate) were measured on a Seahorse XF-24 (Agilent).
Experimental. KP4 (Riken RCB1005) and PSN1 (ATCC: CRM-CRL-3211), were cultured in Dulbecco's modified Eagle's medium (DMEM) (Wisent, St-Bruno, QC) supplemented with 10 % of fetal bovine serum (FBS) (Wisent). HPNE hTERT (ATCC: CRL1423) were cultured in a mix of 75% DMEM without glucose (Sigma Cat#. D-5030) with additional 2 mM L-glutamine and 1.5 g/L sodium bicarbonate, 25% Medium M3 Base (Incell Corp. Cat# M300F- 500), fetal bovine serum 5% (wisent 10 ng/ml human recombinant EGF (Sigma-Aldrich), 5.5 mM D-glucose (Sigma-Aldrich), 750 ng/ml puromycin (Sigma-Aldrich). For dose-response assays, cells were seeded in 96 well plates (company). After 24 h, treatments were applied and cells were grown for 3 more days. Crystal violet retention assay used for cell growth assays were described previously^2. The data is expressed as relative absorbance of crystal violet extracted from the cells and diluted in 10 % acetic acid. IC50 were determined using Prism (GraphPad). Tumor spheres were grew according to Ferbeyre et al^3.

[2] = Solubility in methanol and DMSO; format: physicochemical; details: even at high concentrations
KP4 tumor sections = test: KI67 and cleaved caspase 3 staining of tumor sections from treated mice; format: in vivo, nude mice; details: 50 mg/kg, tumor sections after treatment
Excerpt: (B) Body weight of mice seven days after treatment. […] Representative images shown. Scale bar = 100 µm.
To assess the mechanism of the antitumor activity, we stained tumor sections obtained from animals after the treatment protocol for proliferation marker KI67 and apoptosis marker cleaved caspase 3, and quantified the data according to the scoring key in Fig. 5C. […] However, there were no significant differences in staining for cleaved caspase 3 […].

[3] = Octanol/water partition (logP) of compound 1b; format: physicochemical; details: for logP at 24 h: octanol/water
Experimental: Experimental. A 10 µM or 20 µM solution of 1b was prepared in 5 ml of octanol and mixed with 5 ml distilled water at 25°C The solution was stirred and was left to settle for 24 hours before the absorbance of the octanol fraction was measured. The values obtained were fitted on a calibration curve prepared by measuring the absorbance of 1b in octanol at various concentrations (2.5, 10, 15, 20 and 30 µM). The logP was calculated using the following formula: […]
Where [1b]oct is the concentration of 1b in octanol and [1b]water is the concentration of 1b in water.

HPNE-hTERT cells = test: Cell death assay (trypan blue), HPNE-hTERT cells; format: cell-based, human; details: 15 µM for 24 h
Excerpt: Figure 3 Effects of biguanides on cell proliferation and viability in pancreatic cancer cells. […]. […] | decimal sign comma or point
Experimental. […] At the end of the treatments, adherent cells were recovered by trypsinization, along with floating cells recovered by centrifugation of the culture medium. Floating and adherent cells were pooled together. The faction of dead cells was quantified by counting the proportion of trypan blue-positive (dead cells) and the proportion of living cells (trypan blue-negative).

cancer cells = details: cited from earlier work

Structure (SMILES)	HC 10% (µM) (red blood cells)	HC 10% (µg/ml) (red blood cells)	IC50 [1]	Solubility in methanol and DMSO [2]	KI67 staining in tumors (KP4 tumor sections)	[1b] in octanol ([3]; Partition 1 (10 µM))	[1b] in water ([3]; Partition 1 (10 µM))	[1b] in octanol ([3]; Partition 2 (20 µM))	[1b] in water ([3]; Partition 2 (20 µM))	logP at 24 h ([3]; Partition 1 (10 µM), 25°C, 24 hours, read-out: logP)	logP at 24 h ([3]; Partition 2 (20 µM), 25°C, 24 hours, read-out: logP)	logP at 24 h ([3]; logP (mean of partitions 1 and 2), 25°C, spread ± 0.10 in its own column)	logP at 24 h ([3]; read-out: logP)	Effect on the fraction of dead HPNE cells (HPNE-hTERT cells)	Reported antiproliferative concentration in vitro (cancer cells)
N=C(N)NC(=N)NCc1ccc(C#Cc2ccccc2)cc1 [1b, 4-(phenylethynyl)benzylbiguanide]	> 227 µM	> 100 µg/mL	80.9 µM	good methanol and DMSO solubility even at high concentrations	reduced KI67 staining in tumors	6.91 µM	3.09 µM	15.15 µM	4.85 µM	0.35	0.5	0.42	0.4	did not increase the fraction of dead cells	
CN(C)C(=N)NC(=N)N [metformin, 1,1-dimethylbiguanide, reference compound]															5 mM
